Reference: patent publication US8552028B2, “8-phenylisoquinolines and pharmaceutical composition used in treatment for sepsis” (National Taiwan University, priority 2011, dated 2013)

Tests used:
[1] = target: 5-HT2A receptor (Homo sapiens, UniProt P28223); experiment: 5-HT2A receptor binding affinity; conditions: for Ki: 5-HT2A receptor binding affinity; for 5-HT2A receptor binding affinity compared with sarpogrelate and ketanserin: comparison of Ki values, Table 8
From the text: The 5-HT2A Receptor Binding Affinity of Compounds 116, 157 and 167.
The 5-HT2A receptor binding affinity data are represented by Ki values.

[2] = test system: 5-HT induced amplification of platelet aggregation; experiment: Collagen-elicited aggregation of rat platelet rich plasma, amplified by serotonin (Lumi-aggregometer); format: cell-based, Spraque-Dawley rats; conditions: rat PRP; for amplifying effects of serotonin on collagen induced platelet aggregation: collagen 3 μg/mL
Procedure: Blood samples were collected from male adult Spraque-Dawley rats, and platelet rich plasma (PRP) and platelet poor plasma (PPP) were obtained by centrifugation. Aggregation was elicited by adding collagen 3 μg/mL in PRP, and the aggregation response was recorded as the change of light transmission of PRP with Lumi-aggregometer. In FIG. 9a, collagen induced platelet aggregation, and the aggregation response was amplified by adding 10 μM serotonin in 30 seconds before adding collagen, as shown in FIG. 9b.

[3] = test system: LPS induced endotoxaemia; experiment: Post-treatment of multiple doses on LPS induced endotoxaemia in mice model (survival); format: in vivo; conditions: for survival curve versus vehicle control group: Log rank test, p<0.01
Procedure: 12 hours after intraperitoneal injection of lipopolysaccharide (LPS) 100 mg/kg, compound 116 100 μg/kg or 300 μg/kg were administrated intraperitoneally or subcutaneously every 6 hour till 48 hours after LPS insults. […] Survival curves were compared by the Log rank test, and 3 days survival rate was compared by the chi square test.

[4] = test system: rat de-endothelial thoracic descending aorta; experiment: Serotonin induced rat thoracic aorta contraction (organ bath); parameters: species or system Sprague Dawley rats; conditions: 0.03 or 0.1 μM in organ bath; cumulative serotonin 30 nM-0.1 mM; FIG. 10
Procedure: Thoracic aortae were obtained from adult male Sprague Dawley rats. The aortae were cleared of adhering periadventitial fat and cut into strips 3-4 mm in length. […] The tissue was incubated with warmed (37° C.), oxygenated (95% O2/5% CO2) Krebs-Henseleit solution (KBS, pH7.4) consisting of NaCl 118.2 mM, KCl 4.7 mM, KH2PO4 1.2 mM, MgSO4 1.2 mM, CaCl2·2H2O 1.9 mM, NaHCO3 25 mM and glucose 11.7 mM. Indomethacin (10 μM) was added to prevent the production of prostanoids. One end of the segment was fixed to the organ bath chamber, and the other to a force transducer (Type BG 25; Gould, Oxnard, Calif., USA) in which tension is recorded (model RS 3400 recorder, Gould). The preparations were allowed to equilibrate for at least 60 min under a passive tension of 1.5±0.2 g. Cumulative responses to serotonin (30 nM-0.1 mM) were examined for 20 min after addition of 0.03 or 0.1 μM compound 116 to the organ bath. Contraction responses were expressed as the percentage of maximum contraction.

Chain of 5-HT2A receptor (P28223 whole entry): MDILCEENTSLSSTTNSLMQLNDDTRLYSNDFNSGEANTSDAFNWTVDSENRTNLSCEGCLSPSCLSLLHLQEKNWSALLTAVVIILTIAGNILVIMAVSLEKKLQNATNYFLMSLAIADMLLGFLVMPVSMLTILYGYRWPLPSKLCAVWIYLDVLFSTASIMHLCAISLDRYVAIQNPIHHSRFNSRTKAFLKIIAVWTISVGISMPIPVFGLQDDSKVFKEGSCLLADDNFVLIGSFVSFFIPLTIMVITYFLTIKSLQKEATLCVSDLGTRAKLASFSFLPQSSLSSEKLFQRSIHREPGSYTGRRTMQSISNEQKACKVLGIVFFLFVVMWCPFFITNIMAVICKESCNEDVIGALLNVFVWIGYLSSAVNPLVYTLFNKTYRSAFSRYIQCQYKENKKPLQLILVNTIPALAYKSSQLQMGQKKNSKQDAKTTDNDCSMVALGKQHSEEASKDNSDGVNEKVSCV

SMILES | Ki [1] [nM] | 5-HT2A receptor binding affinity compared with sarpogrelate and ketanserin [1] | also measured
COc1cc2c(c(-c3ccccc3F)c1OC)CN(CCc1ccccc1)CC2 [Compound 157] | 2.21 | higher than those of the well-known 5-HT2A receptor antagonists | –
O=C(c1ccc(F)cc1)C1CCN(CCn2c(=O)[nH]c3ccccc3c2=O)CC1 [ketanserin, reference compound] | – | – | amplifying effects of serotonin on collagen induced platelet aggregation ([2]; 10 μM added 30 seconds before 10 μM serotonin): blocked
COc1ccc(-c2c(O)c(OC)cc3c2CN(CCc2ccccc2F)CC3)c(OC)c1 [Compound 116] | 3.47 | higher than those of the well-known 5-HT2A receptor antagonists | survival curve versus vehicle control group ([3]; 100 μg/kg i.p. or s.c. every 6 hour from 12 h till 48 hours after LPS 100 mg/kg i.p.): shifted the survive curve rightward significantly; survival curve versus vehicle control group ([3]; 300 μg/kg i.p. or s.c. every 6 hour from 12 h till 48 hours after LPS 100 mg/kg i.p.): shifted the survive curve rightward significantly; amplifying effects of serotonin on collagen induced platelet aggregation ([2]; 3 μg/mL added 30 seconds before 10 μM serotonin): blocked; platelet activation ([2]; FIGS. 9a-9d): Did not Exert Platelet Activation; serotonin induced smooth muscle contraction [4]: inhibits serotonin induced smooth muscle contraction in a dose dependent manner

Continued, in another order:

Ki [1] [nM] | SMILES | 5-HT2A receptor binding affinity compared with sarpogrelate and ketanserin [1] | also measured
8.39 | COc1cccc(CCc2ccccc2OCC(CN(C)C)OC(=O)CCC(=O)O)c1 (centres unmarked) [sarpogrelate, reference compound] | – | –
0.119 | COc1cc2c(c(-c3ccccc3F)c1OC)CN(CCc1ccccc1Cl)CC2 [Compound 167] | higher than those of the well-known 5-HT2A receptor antagonists | effect of post-treatment of multiple doses on LPS induced endotoxaemia ([3]; same method as for compound 116, FIG. 8): Protective Effects
